Here are results for 21 molecules from ChEMBL document CHEMBL5625234, “Magic shotgun approach to anti-inflammatory pharmacotherapy: Synthesis of novel thienopyrimidine monomers/heterodimer as dual COX-2 and 15-LOX inhibitors endowed with potent antioxidant activity” (Eur J Med Chem, 2023).

Molecules are shown by their SMILES. pIC50: −log10 of the molar value.

For test [1], the target named is T1, Prostaglandin G/H synthase 1 (Ovis aries, UniProt P05979).
T1 sequence (P05979 whole entry): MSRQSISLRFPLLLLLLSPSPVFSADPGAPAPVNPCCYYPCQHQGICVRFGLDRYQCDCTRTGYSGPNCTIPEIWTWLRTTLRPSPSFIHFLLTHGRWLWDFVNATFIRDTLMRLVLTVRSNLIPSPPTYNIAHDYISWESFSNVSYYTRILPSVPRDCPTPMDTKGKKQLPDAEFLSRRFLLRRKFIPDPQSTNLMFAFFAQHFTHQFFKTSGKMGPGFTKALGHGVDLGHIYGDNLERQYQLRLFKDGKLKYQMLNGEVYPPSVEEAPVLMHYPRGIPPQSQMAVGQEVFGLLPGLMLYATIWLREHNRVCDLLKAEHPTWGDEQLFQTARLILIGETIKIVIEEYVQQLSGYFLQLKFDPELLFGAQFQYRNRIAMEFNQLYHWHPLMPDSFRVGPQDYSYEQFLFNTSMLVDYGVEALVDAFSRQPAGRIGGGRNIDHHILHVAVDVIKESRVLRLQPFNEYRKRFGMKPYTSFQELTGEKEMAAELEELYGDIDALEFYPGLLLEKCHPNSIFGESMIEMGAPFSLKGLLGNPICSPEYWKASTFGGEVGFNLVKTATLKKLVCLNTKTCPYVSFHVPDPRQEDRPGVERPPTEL
The experiment in a line: Inhibition of ovine COX-1 using arachidonic acid as substrate preincubated for 10 mins followed by substrate addition and measured after 2 mins by ELISA.

Test [2] in a line: Inhibition of soybean 15-LOX using arachidonic acid/linolenic acid as substrate preincubated for 5 mins followed by substrate addition and measured after 10 mins by absorbance based assay. Further details: species or system Glycine max.
In test [3] the test system is RAW264.7. The experiment in a line: cells. The following applies: Mus musculus.
For test [4], the system named is RAW264.7. The experiment in a line: cells. The following applies: Mus musculus. The source holds these as a separate data set.
For test [5], the system named is RAW264.7. The test can be described thus: cells. The following applies: Mus musculus. The source holds these as a separate data set.
The target of test [6] is T2, Prostaglandin G/H synthase 2 (Homo sapiens, UniProt P35354).
T2 sequence (P35354 whole entry): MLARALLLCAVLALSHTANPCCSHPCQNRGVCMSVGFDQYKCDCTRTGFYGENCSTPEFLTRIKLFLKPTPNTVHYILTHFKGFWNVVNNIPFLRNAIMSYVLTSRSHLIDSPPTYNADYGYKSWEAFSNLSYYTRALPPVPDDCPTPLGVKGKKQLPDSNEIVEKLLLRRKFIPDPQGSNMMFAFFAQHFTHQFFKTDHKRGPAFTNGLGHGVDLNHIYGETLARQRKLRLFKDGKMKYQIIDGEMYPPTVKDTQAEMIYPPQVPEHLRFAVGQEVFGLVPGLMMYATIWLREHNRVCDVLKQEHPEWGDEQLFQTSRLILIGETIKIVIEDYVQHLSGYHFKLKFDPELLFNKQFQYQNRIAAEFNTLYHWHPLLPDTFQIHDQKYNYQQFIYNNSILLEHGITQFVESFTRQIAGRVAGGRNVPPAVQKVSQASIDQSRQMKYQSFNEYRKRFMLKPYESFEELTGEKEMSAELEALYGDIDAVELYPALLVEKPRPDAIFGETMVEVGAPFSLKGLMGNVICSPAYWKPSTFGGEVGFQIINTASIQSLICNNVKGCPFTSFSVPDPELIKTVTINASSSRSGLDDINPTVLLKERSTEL
The test can be described thus: Inhibition of human COX-2 using arachidonic acid as substrate incubated for 30 secs by ELISA. (In general: ELISA stands for enzyme-linked immunosorbent assay.)

Test [7] deals with RAW264.7. The test can be described thus: cells. The following applies: Mus musculus. The source holds these as a separate data set.
The nature of test [8]: Inhibition of soybean 15-LOX using arachidonic acid as substrate preincubated with compound followed by substrate addition and measured after 5 mins by absorbance based microplate reader. More on the design: species or system Glycine max.
Test [9] concerns the target T3, Polyunsaturated fatty acid lipoxygenase ALOX15 (Homo sapiens, UniProt P16050).
T3 sequence (P16050 whole entry): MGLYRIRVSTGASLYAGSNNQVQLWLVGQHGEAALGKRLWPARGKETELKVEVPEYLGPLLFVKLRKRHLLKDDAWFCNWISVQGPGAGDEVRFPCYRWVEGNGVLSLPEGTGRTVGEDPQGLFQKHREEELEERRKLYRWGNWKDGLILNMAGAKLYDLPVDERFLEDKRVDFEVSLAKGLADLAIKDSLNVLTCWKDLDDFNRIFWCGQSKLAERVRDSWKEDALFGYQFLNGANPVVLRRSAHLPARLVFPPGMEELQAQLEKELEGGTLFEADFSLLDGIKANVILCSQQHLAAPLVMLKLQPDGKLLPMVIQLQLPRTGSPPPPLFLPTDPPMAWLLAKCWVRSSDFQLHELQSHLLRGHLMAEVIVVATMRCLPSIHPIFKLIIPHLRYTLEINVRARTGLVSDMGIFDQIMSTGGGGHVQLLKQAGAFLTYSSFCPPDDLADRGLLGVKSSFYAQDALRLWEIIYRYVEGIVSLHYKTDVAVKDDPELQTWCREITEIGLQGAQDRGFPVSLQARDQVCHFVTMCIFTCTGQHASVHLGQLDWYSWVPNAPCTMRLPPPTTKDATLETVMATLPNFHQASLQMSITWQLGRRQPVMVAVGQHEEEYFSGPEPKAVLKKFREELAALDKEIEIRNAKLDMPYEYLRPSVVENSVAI
The test can be described thus: Inhibition of 15-LOX (unknown origin) using linoleic acid as substrate incubated for 5 mins by absorbance based assay.

The next test is filed under the species Ovis aries. The test can be described thus: Selectivity index, ratio of IC50 for inhibition of ovine COX-1 to IC50 for inhibition of ovine COX-2.
Test [10] has as its target T4, Prostaglandin G/H synthase 2 (Ovis aries, UniProt P79208).
T4 sequence (P79208 whole entry): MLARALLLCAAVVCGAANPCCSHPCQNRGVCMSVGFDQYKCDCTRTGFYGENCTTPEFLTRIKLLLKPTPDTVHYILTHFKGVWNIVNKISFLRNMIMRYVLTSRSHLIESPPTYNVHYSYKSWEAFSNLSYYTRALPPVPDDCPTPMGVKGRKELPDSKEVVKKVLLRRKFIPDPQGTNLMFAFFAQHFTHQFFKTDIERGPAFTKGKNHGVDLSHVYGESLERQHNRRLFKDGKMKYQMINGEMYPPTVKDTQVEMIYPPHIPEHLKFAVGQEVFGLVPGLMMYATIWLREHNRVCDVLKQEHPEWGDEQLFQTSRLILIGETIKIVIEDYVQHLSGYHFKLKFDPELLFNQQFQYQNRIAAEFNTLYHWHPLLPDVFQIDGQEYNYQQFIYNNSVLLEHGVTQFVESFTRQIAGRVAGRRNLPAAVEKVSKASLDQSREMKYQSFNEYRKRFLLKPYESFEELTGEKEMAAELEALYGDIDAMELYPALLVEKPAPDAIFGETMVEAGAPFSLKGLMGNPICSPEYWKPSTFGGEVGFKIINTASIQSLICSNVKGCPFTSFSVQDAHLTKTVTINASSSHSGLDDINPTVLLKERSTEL
The experiment in a line: Inhibition of ovine COX-2 using arachidonic acid as substrate preincubated for 5 mins followed by substrate addition and measured after 2 mins by colorimetric assay.

Test [11] has as its target T2, Prostaglandin G/H synthase 2. The test can be described thus: Inhibition of human COX-2.
Test [12] addresses COX-1/COX-2 (Homo sapiens) (UniProt P35354+P23219). The test can be described thus: Selectivity index, ratio of IC50 for inhibition of human COX-1 to IC50 for inhibition of human COX-2. Format: protein assay.

COX-1/COX-2 (Homo sapiens), sequence (P23219 whole entry, looked up, one chain of several): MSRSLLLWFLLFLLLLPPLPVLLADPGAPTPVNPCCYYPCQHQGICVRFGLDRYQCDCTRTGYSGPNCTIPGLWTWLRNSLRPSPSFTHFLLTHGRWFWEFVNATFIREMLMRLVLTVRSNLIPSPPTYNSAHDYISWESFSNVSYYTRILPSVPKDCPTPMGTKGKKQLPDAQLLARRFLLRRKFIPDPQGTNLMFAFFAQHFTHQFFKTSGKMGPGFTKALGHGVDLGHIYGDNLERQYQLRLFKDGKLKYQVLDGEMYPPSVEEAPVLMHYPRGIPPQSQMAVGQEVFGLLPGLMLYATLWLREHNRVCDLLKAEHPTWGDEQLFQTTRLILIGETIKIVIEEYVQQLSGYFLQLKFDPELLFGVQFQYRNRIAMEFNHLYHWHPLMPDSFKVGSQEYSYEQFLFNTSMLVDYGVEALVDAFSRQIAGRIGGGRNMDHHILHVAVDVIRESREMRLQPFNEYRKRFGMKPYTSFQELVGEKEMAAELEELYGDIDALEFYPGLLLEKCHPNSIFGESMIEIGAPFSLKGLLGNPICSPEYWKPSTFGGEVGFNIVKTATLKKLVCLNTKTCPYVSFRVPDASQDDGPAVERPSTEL

The pIC50 is the IC50 on a negative log10 scale, so that one unit is a factor of ten. `O=[N+]([O-])c1ccc(-c2nc(Nc3cccc(Br)c3)c3c4c(sc3n2)CCCC4)cc1`: the pIC50 in test [1] was 5.19; in test [2], 5.40; with RAW264.7 [3], less than 4.00.
For `COc1cc(-c2nc(Nc3ccc(C)cc3)c3c4c(sc3n2)CCCC4)cc(OC)c1OC`, the pIC50 in test [1] was 5.07; in [2] it was 5.58; in the test with RAW264.7 [4], less than 4.00; in the test on RAW264.7 [3], less than 4.00; in the test with RAW264.7 [5], less than 4.00.
`CS(=O)(=O)c1ccc(C2CN(c3ccc(C(F)(F)F)cc3)N=N2)cc1` (centres undefined): in test [6], the pIC50 is 6.65.
Take `Clc1ccc(-c2nc(Nc3ccc(Br)cc3)c3c4c(sc3n2)CCCC4)cc1`: the pIC50 in test [1] was 5.04; in test [2], 5.68; in the test on RAW264.7 [3], less than 4.00.
As for `O=[N+]([O-])c1ccc(-c2nc(Nc3ccc(Br)cc3)c3c4c(sc3n2)CCCC4)cc1`, the pIC50 in test [1] is 5.01; in [2] it was 5.47; with RAW264.7 [3] it was less than 4.00; in the test on RAW264.7 [7], less than 4.00.
Turning to `Clc1ccc(-c2nc(Nc3cccc(Br)c3)c3c4c(sc3n2)CCCC4)cc1`, the pIC50 is 5.07 in test [1], 5.47 in [2], less than 4.00 in the test on RAW264.7 [4] and less than 4.00 with RAW264.7 [3].
For the molecule `COc1ccc(-c2nc(Nc3ccc(F)cc3)c3c4c(sc3n2)CCCC4)cc1`, the pIC50 in test [1] is 4.94; in test [2], 5.71; in the test with RAW264.7 [3], less than 4.00; in the test on RAW264.7 [5], less than 4.00.
Turning to `COc1cc(-c2nc(Nc3ccc(F)cc3)c3c4c(sc3n2)CCCC4)cc(OC)c1OC`, the pIC50 in test [1] is 4.96; in test [2], 5.64; in the test on RAW264.7 [3] it was less than 4.00; in the test on RAW264.7 [7], 3.77.
As to `O=C(C/C(=C/c1cccc([N+](=O)[O-])c1)c1n[nH]c(=S)o1)c1ccc(Cl)c(Cl)c1`, the pIC50 was 4.98 in test [1] and 5.79 in test [8].
Turning to `COc1ccc(-c2nc(NNc3ncnc4sc5c(c34)CCCC5)c3c4c(sc3n2)CCCC4)cc1`, the pIC50 in test [1] is 4.95; in test [2], 5.73; with RAW264.7 [3], less than 4.00.
`CCn1c(-n2cc(/C=N/N=c3\scc(-c4ccc(Br)cc4)n3-c3ccccc3)c(-c3ccc(Cl)cc3)n2)nc2[nH]c(=O)n(C)c(=O)c21` showed a pIC50 in [9] of 5.75.
With `Fc1ccc(Nc2nc(-c3ccc(Cl)cc3)nc3sc4c(c23)CCCC4)cc1`, the pIC50 was 5.24 in test [1], 5.32 in test [2] and less than 4.00 in the test on RAW264.7 [5].
In the case of `Cc1ccc(Nc2nc(-c3ccc([N+](=O)[O-])cc3)nc3sc4c(c23)CCCC4)cc1`, the pIC50 in test [1] was 5.09; in test [2], 5.56; with RAW264.7 [3], less than 4.00.
As to `Clc1ccc(-c2nn(-c3ccccc3)cc2/C=N/Nc2ncnc3c(-c4ccccc4)csc23)cc1`, the Ratio IC50 in the test listed under Ovis aries amounted to 248. In test [10], the pIC50 is 7.32.
Regarding `Cc1ccc(Nc2nc(-c3ccc(Cl)cc3)nc3sc4c(c23)CCCC4)cc1`, the pIC50 is 5.09 in test [1], 5.35 in test [2], less than 4.00 in the test on RAW264.7 [4] and less than 4.00 with RAW264.7 [3].
In the case of `CCn1c(-n2cc(/C=N/N=c3\scc(-c4ccc(Br)cc4)n3-c3ccccc3)c(-c3ccc(OC)cc3)n2)nc2[nH]c(=O)n(C)c(=O)c21`, the pIC50 in test [9] is 5.74.
With `COc1cc(/C=C2\S/C(=N/c3nnc(C)s3)NC2=O)cc(OC)c1OC`, the values for the negative-log IC50 (pIC50) in test [1] and in [2] were 4.91 and 4.96, respectively.
The corresponding values for `O=c1[nH]/c(=C\c2nnc(-c3ccc(O)cc3)s2)s/c1=C\c1ccc(Cl)c(Cl)c1` are 4.81 and 4.93.
Regarding `COc1ccc(-c2nc(Nc3ccc(Br)cc3)c3c4c(sc3n2)CCCC4)cc1`, the pIC50 in [1] is 5.02; in test [2], 5.62; with RAW264.7 [3] it was less than 4.00.
For `CSc1nnc2n(Cc3ccccc3)c(=O)c3c4c(sc3n12)CCCC4`, the pIC50 in test [11] was 6.28. The Ratio IC50 in test [12] came to 192.
For `O=[N+]([O-])c1ccc(-c2nc(Nc3ccc(F)cc3)c3c4c(sc3n2)CCCC4)cc1`, the figures for the pIC50 (in test [1]; in [2]; with RAW264.7 [3]) were 5.14, 5.44 and less than 4.00, respectively.
